Values quoted from earlier work as cited in US5346701A, “Transmucosal delivery of macromolecular drugs” (TheraTech, Inc., priority 1993, dated 1994).

Assays:
[1] = tested on: delayed-typehypersensitivity
[2] = tested on: antithrombin III (AT III); settings: clinically used heparin
[3] = tested on: vascular smooth muscle cells
platelets = settings: in vitro
[4] = nasal membranes

## heparin
Colon of a baboon, without bile salt
  prolongation of partial thromboplastin time or release of plasma lipase activity: not apparent
With sodium cholate or deoxycholate in the formulation
  activity (partial thromboplastin time / plasma lipase): significant activity was detected
thrombin
  acceleration of rate of thrombin inactivation: up to 2000 -fold
angiogenesis
  angiogenesis: inhibits angiogenesis
Renal mesengial cells
  proliferation of renal mesengial cells: inhibits the proliferation
[1]
  delayed-type hypersensitivity: suppresses
[2]
  proportion of heparin having high affinity for AT III: Approximately 33%
[3]
  proliferation of vascular smooth muscle cells: inhibits the proliferation
platelets
  release of platelets: enhances the release of platelets

## C[C@H](CCC(=O)O)[C@H]1CC[C@H]2[C@@H]3[C@H](O)C[C@@H]4C[C@H](O)CC[C@]4(C)[C@H]3CC[C@]12C [chenodeoxycholate]
[4]
  order of effectiveness as enhancer of insulin absorption: deoxycholate<chenodeoxycholate<cholate<ursodeoxycholate

## C[C@H](CCC(=O)O)[C@H]1CC[C@H]2[C@@H]3[C@H](O)C[C@@H]4C[C@H](O)CC[C@]4(C)[C@H]3C[C@H](O)[C@]12C [cholate]
[4]
  order of effectiveness as enhancer of insulin absorption: deoxycholate<chenodeoxycholate<cholate<ursodeoxycholate

## C[C@H](CCC(=O)O)[C@H]1CC[C@H]2[C@@H]3[C@@H](O)C[C@@H]4C[C@H](O)CC[C@]4(C)[C@H]3CC[C@]12C [ursodeoxycholate]
[4]
  order of effectiveness as enhancer of insulin absorption: deoxycholate<chenodeoxycholate<cholate<ursodeoxycholate
